Calls of active or inactive are those of the source. The rule behind the calls is not given here.

One compound from ChEMBL document CHEMBL1143305, “SAR and biological evaluation of analogues of a small molecule histone deacetylase inhibitor N-(2-aminophenyl)-4-((4-(pyridin-3-yl)pyrimidin-2-ylamino)methyl)benzamide (MGCD0103)” (Bioorg Med Chem Lett, 2009) can be followed below.

Test [1] concerns the target Histone deacetylase 3 (Homo sapiens, UniProt O15379). As to the kind of experiment: Inhibition of HDAC3.
The target in test [2] is Histone deacetylase 1 (Homo sapiens, UniProt Q13547). Kind of test: Inhibition of human recombinant HDAC1.
In test [3] the test system is HMEC. Kind of test: Antiproliferative activity against HMEC by MTT assay. It is filed as cell-based. The conditions noted are these: Homo sapiens. In general terms: Formazan colour is commonly taken as a measure of viable cells.
For test [4], the system named is NCI-H460. As to the kind of experiment: Antitumor activity against human H460 cells xenografted in mouse at 20 mg/kg, po administered once daily for 12 days relative to control. It is filed as functional.
Test [5] concerns HCT-15. As to the kind of experiment: Antitumor activity against human HCT15 cells xenografted in mouse at 10 mg/kg, po administered once daily for 12 days relative to control. It is filed as functional. Background: A xenograft is tissue or cells of one species grown in another, often human tumour cells in immunodeficient mice.
The target of test [6] is T1, Protein deacetylase HDAC6 (Homo sapiens, UniProt Q9UBN7).
T1 sequence (Q9UBN7 whole entry): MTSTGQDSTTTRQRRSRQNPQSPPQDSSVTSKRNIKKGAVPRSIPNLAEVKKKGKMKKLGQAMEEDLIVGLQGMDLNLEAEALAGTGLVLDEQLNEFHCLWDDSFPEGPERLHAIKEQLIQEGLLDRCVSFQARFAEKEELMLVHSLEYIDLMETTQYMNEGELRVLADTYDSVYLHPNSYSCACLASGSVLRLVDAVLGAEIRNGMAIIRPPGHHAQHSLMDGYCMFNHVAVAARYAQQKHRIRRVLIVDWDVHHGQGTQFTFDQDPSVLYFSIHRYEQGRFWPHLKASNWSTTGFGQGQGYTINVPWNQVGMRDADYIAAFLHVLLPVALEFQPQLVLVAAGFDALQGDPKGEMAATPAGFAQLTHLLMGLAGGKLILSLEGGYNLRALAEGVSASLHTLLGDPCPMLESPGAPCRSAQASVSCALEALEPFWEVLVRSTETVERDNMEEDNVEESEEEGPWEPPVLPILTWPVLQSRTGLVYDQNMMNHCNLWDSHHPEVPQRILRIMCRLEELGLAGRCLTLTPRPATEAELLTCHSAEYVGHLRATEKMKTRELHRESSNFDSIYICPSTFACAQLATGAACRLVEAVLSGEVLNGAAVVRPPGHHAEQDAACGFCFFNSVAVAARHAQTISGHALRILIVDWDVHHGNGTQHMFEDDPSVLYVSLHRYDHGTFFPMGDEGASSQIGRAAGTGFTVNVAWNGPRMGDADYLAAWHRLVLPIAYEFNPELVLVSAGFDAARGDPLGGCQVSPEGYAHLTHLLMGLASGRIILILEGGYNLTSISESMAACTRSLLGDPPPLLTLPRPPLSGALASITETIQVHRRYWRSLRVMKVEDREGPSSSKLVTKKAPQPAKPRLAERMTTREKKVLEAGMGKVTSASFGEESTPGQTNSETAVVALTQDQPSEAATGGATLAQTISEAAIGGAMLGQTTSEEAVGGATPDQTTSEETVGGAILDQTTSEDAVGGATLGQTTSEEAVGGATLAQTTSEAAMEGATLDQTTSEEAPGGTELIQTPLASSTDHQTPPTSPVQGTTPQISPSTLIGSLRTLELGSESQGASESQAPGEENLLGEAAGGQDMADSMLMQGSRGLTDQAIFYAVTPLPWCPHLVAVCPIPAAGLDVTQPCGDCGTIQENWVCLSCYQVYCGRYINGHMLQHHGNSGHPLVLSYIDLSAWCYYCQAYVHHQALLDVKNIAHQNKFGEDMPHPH
As to the kind of experiment: Inhibition of HDAC6.

The test system of test [7] is HCT-116. Kind of test: Induction of p21WAF1/CIP1 expression in human HCT116 cells assessed as […] after 16 hrs by luciferase assay. Type of test: functional, cell-based.

Chain of Histone deacetylase 1 (Q13547 whole entry): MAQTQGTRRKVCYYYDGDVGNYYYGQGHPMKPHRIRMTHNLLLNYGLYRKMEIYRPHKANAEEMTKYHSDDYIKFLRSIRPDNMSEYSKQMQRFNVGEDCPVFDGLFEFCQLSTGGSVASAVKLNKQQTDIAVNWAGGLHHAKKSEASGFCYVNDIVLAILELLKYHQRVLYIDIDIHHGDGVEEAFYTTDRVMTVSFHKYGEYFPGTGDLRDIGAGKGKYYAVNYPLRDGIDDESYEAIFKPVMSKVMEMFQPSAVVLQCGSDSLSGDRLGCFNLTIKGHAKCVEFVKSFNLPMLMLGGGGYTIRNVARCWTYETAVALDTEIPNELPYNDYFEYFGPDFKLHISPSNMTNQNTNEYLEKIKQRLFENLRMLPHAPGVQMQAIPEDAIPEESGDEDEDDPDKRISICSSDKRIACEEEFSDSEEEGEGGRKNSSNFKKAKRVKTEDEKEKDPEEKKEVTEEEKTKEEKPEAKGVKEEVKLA
Chain of Histone deacetylase 3 (O15379 whole entry): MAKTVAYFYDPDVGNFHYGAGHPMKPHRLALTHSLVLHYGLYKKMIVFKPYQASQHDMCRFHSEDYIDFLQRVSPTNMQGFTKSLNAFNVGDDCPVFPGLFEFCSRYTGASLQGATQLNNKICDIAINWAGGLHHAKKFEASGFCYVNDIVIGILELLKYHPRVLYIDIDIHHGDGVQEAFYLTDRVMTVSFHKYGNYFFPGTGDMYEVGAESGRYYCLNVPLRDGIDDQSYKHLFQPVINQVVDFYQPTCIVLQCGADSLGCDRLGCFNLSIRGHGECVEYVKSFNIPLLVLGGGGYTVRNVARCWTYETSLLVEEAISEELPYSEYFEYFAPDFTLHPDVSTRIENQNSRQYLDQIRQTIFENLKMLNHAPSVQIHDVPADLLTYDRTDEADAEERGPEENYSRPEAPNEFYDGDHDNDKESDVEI

Broadly, the IC50 is the point on the concentration scale where inhibition reaches its midpoint. The T/C is the ratio of treated to control. Consider `Nc1ccccc1NC(=O)c1ccc(CNc2nccc(-c3ccn[nH]3)n2)cc1`, for which the 50% inhibitory concentration (IC50) in test [1] is 320 nM; in test [2], 140 nM; in test [3], 24000 nM; in test [6], > 20000 nM. Besides, the T/C came to 34% in test [4] and 63% in test [5]. Moreover, the outcome in test [7] was inactive.
